pIC50: −log10 of the molar value. Read-outs that look alike come from different tables or passages of the source.
Legend:
[1] = biological target: T1, human recombinant JAK2 protein (Homo sapiens, UniProt O60674); test: JAK2 Inhibition Assay (HTRF kinase assay); type: biochemical; conditions: human recombinant JAK2, 2.5 μM ATP substrate solution
T1 construct: purchased Carna Biosciences 08-045
How it was run: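 Recombinant human JAK2 was preincubated 15 min at room temperature with compound in buffer containing 5 mM MgCl2, 1 mM DTT and 0.01% Brij35. Substrate solution (2.5 μM ATP, 0.25 μM biotinylated TK substrate) was then added for 30 min. Phosphorylation was detected by HTRF (665/620 nm ratio; no-enzyme = 100% inhibition), and IC50 was fitted from an 8-point, 4-fold series.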

[2] = biological target: T2, human recombinant TYK2 protein (Homo sapiens, UniProt P29597); test: TYK2 Inhibition Assay (HTRF kinase assay); type: biochemical; conditions: human recombinant TYK2, 11.25 μM ATP substrate solution
T2 construct: purchased Carna Biosciences 08-147
T2 sequence (P29597 871-1187 limits assumed): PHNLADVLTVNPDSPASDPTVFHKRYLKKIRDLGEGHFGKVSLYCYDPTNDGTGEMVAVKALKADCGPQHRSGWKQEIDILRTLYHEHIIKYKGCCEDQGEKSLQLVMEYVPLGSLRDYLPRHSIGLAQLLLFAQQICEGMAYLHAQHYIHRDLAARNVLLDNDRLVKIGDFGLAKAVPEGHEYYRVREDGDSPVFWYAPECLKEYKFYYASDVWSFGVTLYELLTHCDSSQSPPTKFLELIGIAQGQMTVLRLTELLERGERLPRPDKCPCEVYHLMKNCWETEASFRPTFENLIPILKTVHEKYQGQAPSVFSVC
How it was run: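 Recombinant human TYK2 was pre-incubated 15 min at room temperature with compound, then reacted for 40 min with biotinylated tyrosine-kinase substrate and ATP (substrate solution 11.25 μM ATP, 0.5 μM substrate; 5 mM MgCl2, 0.01% Brij35). Phosphorylation was read by HTRF 665/620 ratio, normalised to no-enzyme and no-compound controls, and IC50 was fitted from 8 4-fold dilutions.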

[3] = test system: IL-12-induced IFN-γ secretion in NK92 cells; test: Inhibition of IL-12-induced IFN-γ Secretion in NK92 Cells (ELISA); type: cell-based, human; conditions: 24 hours incubation, 8 concentration points, read-out: IC50 (NK92_IL12/IFNγ)
How it was run: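 NK92 cells (100,000/well, IL-2-free medium) rested overnight, then treated with compound plus IL-12 for 24 h at 37 °C. Secreted IFN-γ measured in supernatant by ELISA. Inhibition normalized to unstimulated and IL-12/0.2% DMSO controls; IC50 fitted from 8 concentrations.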

T1 sequence (O60674 826-1132 limits assumed): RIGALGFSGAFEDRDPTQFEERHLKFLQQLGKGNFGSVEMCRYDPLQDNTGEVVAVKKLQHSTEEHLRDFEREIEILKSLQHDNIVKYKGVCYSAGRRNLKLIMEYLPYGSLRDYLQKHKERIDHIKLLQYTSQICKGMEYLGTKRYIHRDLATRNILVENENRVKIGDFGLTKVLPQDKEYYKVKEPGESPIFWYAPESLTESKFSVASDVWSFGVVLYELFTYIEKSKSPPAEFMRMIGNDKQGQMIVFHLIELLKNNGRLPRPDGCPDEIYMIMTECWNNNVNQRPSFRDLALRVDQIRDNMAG

Row | IC50 [1] | IC50 [2] | pIC50 ([3]; Homo sapiens) | pIC50 [3] | Compound
1 | 0.5 nM | 0.1 nM | 6.80 | – | [2H]C([2H])([2H])n1cc(Nc2ncc(Cl)c(N3C[C@@H]4CN(C(=O)CC#N)C[C@]4(C)C3)n2)cn1 [Compound 99, 3-((3aS,6aR)-5-(5-chloro-2-((1-(methyl-d3)-1H-pyrazol-4-yl)amino)pyrimidin-4-yl)-3a-methylhexahydropyrrolo[3,4-c]pyrrol-2(1H)-yl)-3-oxopropanenitrile]
2 | 20 nM | 4.1 nM | – | 5.97 | cyclopropyl((3aR,6aS)-3a,6a-dimethyl-5-(5-methyl-2((1-methyl-1H-pyrazol-4-yl)amino)pyriraidin-4-yl)hexahydropyrrolo[3,4-c]pyrrol-2(1H)-yl)methanone [Compound 24]
